According to patent US20120195862A1, “BIO[…] OF HEMATOPOIESIS” (CHILDREN'S MEDICAL CENTER CORPORATION, priority 2009, published 2012):
Entries after “also recorded” stand apart in the source; their conditions may differ.

Tests used:
Runx1 = test: Quantitative real-time PCR gene expression analysis of Runx1 in ES-derived cells (CD41+/cKit+); assay type: cell-based, mouse; settings: 2 mM; for Runx1 expression in static cultures of ES-derived cells: static conditions, n=2
Description: (§1) More specifically, in the instant approach, plates were coated with a thick layer of 1% gelatin (DIFCO #214340, Becton Dickinson). After 12 hr, cells were washed three times with 10 ml of warm PBS with calcium and incubated for 45 min with EB differentiation media with or without 2 mM N(G)-nitro-L-arginine methyl ester (L-NAME) or 2 mM N(G)-nitro-D-arginine methyl ester (D-NAME) (Sigma-Aldrich). Cells to be moved to the dynamic flow system were incubated in 7 ml of media, and static controls incubated in 20 ml of media. Following 45 min incubation, cells were either moved to the Dynamic Flow System and exposed to shear stress or maintained in a standard cell culture incubator. The shear stress ramped up in a step-wise fashion from 0 dyne/cm^2 to 5 dyne/cm^2 over a period of 12 hr, in order to minimize cell loss during the transition from static to dynamic culture. Following the 12 hr ramping period, the cells were then exposed to a constant 5 dyne/cm^2 shear stress for 36 hr. In cells exposed to shear stress, culture media with or without D-NAME or L-NAME were automatically exchanged and stored at 37° C. and 5% CO2. In static controls, culture medium was replaced after 24 hr and stored in 75 cm^2 flasks in a cell culture incubator. After 48 hr exposure to shear stress or growth under static conditions, cells were detached by 10 min incubation with a 1:1 dilution of Trypsin-Versene mixture (Cambrex, #17-161E) and Hank's Balanced Salt Solution.
Total RNA was extracted with a RNEASY® Micro Kit (QIAGEN, Inc., Valencia, Calif.), according to manufacturer's instructions. For RNA extraction from CD41^+/cKIT^+ cells, approximately 7,000 cells were sorted directly into 300 μl of Lysis Buffer. Reverse transcription of RNA was performed using MULTISCRIBE™ […] (Applied Biosystems, Foster City, Calif.), according to manufacturer's instructions. When processing FACS-sorted cells, RNA was eluted in 20 μl and all collected RNA was used in 50 μl reverse transcription reaction. […]

ES-derived cells = test: Methylcellulose hematopoietic colony forming unit (CFU) assay of ES-derived cells exposed to wall shear stress or static culture; assay type: cell-based, mouse; settings: 2 mM; for number of CFUs in ES-derived cultures in static conditions: static conditions (no shear stress), n=2
Description: Ainv15 CDX4-inducible mouse embryonic stem cells (iCDX4 ES) were cultured on mitomycin-treated Mouse Embryonic Fibroblasts (MEFs) (Chemicon, strain CF-1) and passaged every 2 to 3 days with 0.25% trypsin/EDTA as previously described. Wang et al., 102 P.N.A.S. 19081-86 (2005). To induce differentiation, ES cells were trypsinized, gently dispersed by repetitive pipetting and re-plated for 45 min at 37° C. for MEF depletion. Floating and loosely-adherent cells were gathered, checked for viability with trypan blue, and diluted in Embryoid Body (EB) differentiation media (Iscove's Modified Dulbecco's Medium [IMDM], 10% FCS [STEMCELL Tech., Vancouver, British Columbia, cat #06952], Penicillin 10 units/ml, Streptomycin 10 μg/ml, 1 mM L-Glutamine, Monothiolglycerol 3.8 nl/ml, Fe-saturated transferrin 0.2 mg/ml, Ascorbic Acid 0.5 mg/ml), to a final concentration of 6.7×10^3 cell/ml. EBs were cultured via the hanging drop method in 15 μl drops on 15 cm bacterial dishes. Typically, 100 plates of EBs were used per experiment. After 48 hr, EBs were pooled into calcium and magnesium containing warm PBS and collected by precipitation in 50 ml Falcon tubes. Pooled EBs were transferred to 10 cm tissue culture dishes containing 10 ml of EB differentiation media each, placed on an orbital shaker moving at 75 rev/min, and incubated for an additional 30 hr. Following this second culture phase, day 3.25-EBs were collected by precipitation, washed two times in 30 ml calcium-free PBS and trypsinized for 1 min in a 1:1 dilution of calcium-free PBS and 0.25% Trypsin-EDTA. Trypsinization was blocked by addition of 10 ml EB differentiation media.
as §1, with “In cells exposed to shear stress, culture media with or without D-NAME or L-NAME were automatically exchanged and stored at 37° C. and 5% CO2. In static controls, culture medium was replaced after 24 hr and stored in 75 cm^2 flasks in a cell culture incubator. After 48 hr exposure to shear stress or growth under static conditions, cells were detached by 10 min incubation with a 1:1 dilution of Trypsin-Versene mixture (Cambrex, #17-161E) and Hank's Balanced Salt Solution.” left out
Methylcellulose assay was performed as previously described and scored on days 8 to 10 post-plating. […]

[1] = system: hematopoietic progenitors in the aorta-gonad-mesonephros (AGM) region; test: In vivo colony forming unit (CFU) assay of the AGM region after treating pregnant mice; set-up: species or system mouse; settings: 300 mg/kg i.p. on E8.5 and 24 hr later, E10.5 embryos, versus D-NAME, p=0.0008
Description: Methylcellulose assay was performed as previously described and scored on days 8 to 10 post-plating. Wang et al., 102 P.N.A.S. 19081-86 (2005).
Day-7 post-coitum timed-pregnant Swiss-Webster mice were purchased from Taconic Farms. Noon on the day the copulation plug was found was designated 0.5 days. On day E8.5 (day 9 post coitum) mice were intraperitoneally injected with 300 mg/kg of L-NAME or D-NAME (SIGMA) dissolved in sterile, apyrogenic saline solution using a dose volume of 10 ml/kg. The injection was repeated after 24 hr. Exactly 24 hr after the second injection, mice were euthanized with CO2, embryos were harvested, and a conservative dissection of the AGM was performed. Embryo trunks were dissociated with 0.1% dispase and analyzed with the methylcellulose assay. Experiments were carried out with Institutional Animal Care and Use Committee approval from Harvard Medical School or Children's Hospital, Boston.

Structure (SMILES)	Runx1 expression in static cultures of ES-derived cells (Runx1)	number of CFUs in ES-derived cultures in static conditions (ES-derived cells)	number of CFUs per AGM (hematopoietic progenitors in the AGM region) [1]	WSS-mediated Runx1 upregulation (Runx1; CD41+/cKit+ cells exposed to shear stress, n=3)	shear stress-induced enrichment in CFUs (ES-derived cells; shear stress, compared with cells treated with D-NAME)	reduction of the WSS-mediated increase in hematopoietic colony forming units (ES-derived cells; wall shear stress 5 dyne/cm^2, n=3, p=0.04) [%]
COC(=O)[C@H](N)CCCN=C(N)N[N+](=O)[O-] [D-NAME, N(G)-nitro-D-arginine methyl ester]	do not affect; also recorded: no effect	do not affect; also recorded: no effect	–	–	–	–
COC(=O)[C@@H](N)CCCNC(=N)N[N+](=O)[O-] [L-NAME, N(G)-nitro-L-arginine methyl ester]	do not affect; also recorded: no effect	do not affect; also recorded: no effect	reduction; also recorded: marked decrease	does not affect; also recorded: did not affect	significant reduction	50
